The results in this text go back to patent publication US7964613B2 (Asahi Kasei Pharma Corporation, priority 2007, dated 2011).

As a reminder, the inhibition is how much of the control response was suppressed. A high value points to strong suppression. By IC50 is commonly meant the point on the concentration scale where inhibition reaches its midpoint. Read a high IC50 as lower potency.

The subject of assay [1] is mouse neuroblastoma cell strain N1E-115. As to the kind of experiment: Inhibitory effect on neurite retraction (LPA-induced). Format: cell-based. The conditions noted are these: mouse/rat NG108-15; 10 μM compound, 1 μM LPA, N1E-115 cells. How it is done:
An experiment for Inhibitory effect on neurite retraction using mouse neuroblastoma cell strain N1E-115 was performed according to the method of Hirose, M. et al. (J. Cell. Biol., 141, pp. 1625-1636 (1998)). This method utilizes the fact that LPA (lysophosphatidic acid), which is a endogenous substance, induces neurite retraction, and is a method of evaluating how much a drug can inhibit the LPA-induced neurite retraction and thereby evaluating potency of inhibition of neuronal degeneration and potency of neuronal regeneration of the drug. N1E-115 cells cultured in a DMEM solution containing 20% heat-inactivated fetal bovine serum were plated on a 6-well plate (IWAKI) at a density of 40,000 cells/well, and cultured overnight at 37° C. in the same culture medium in a 5% CO2 incubator. In order to induce differentiation of the N1E 115 cells into nerve cells, the culture medium was changed to the serum-free DMEM solution, and the cells were cultured for 1 or 2 days at 37° C. in the 5% CO2 incubator until most of the cells extended the neurites. On the examination day, each compound of the present invention was added at a final concentration of 10 μM, incubation was performed for 30 minutes, then LPA (Sigma) was added at a final concentration of 1 μM, and incubation was further performed for 10 minutes. To the control, the same volume of phosphate buffered saline as the solvent was added. After completion of the incubation, glutaraldehyde was added at a final concentration of 5% to fix the cells. […] The inhibition rate (%) of each drug was calculated by using the following equation. Inhibition rate(%)=100−(RCP obtained with drug to be evaluated−RCP of control)/(RCP obtained with LPA−RCP of control)×100

For another assay, the target named is T1, human ROCK1 (Homo sapiens, UniProt Q13464).
T1 construct: His tag (N); host or cells: insect cells (Sf9)
T1 sequence (Q13464 1-727): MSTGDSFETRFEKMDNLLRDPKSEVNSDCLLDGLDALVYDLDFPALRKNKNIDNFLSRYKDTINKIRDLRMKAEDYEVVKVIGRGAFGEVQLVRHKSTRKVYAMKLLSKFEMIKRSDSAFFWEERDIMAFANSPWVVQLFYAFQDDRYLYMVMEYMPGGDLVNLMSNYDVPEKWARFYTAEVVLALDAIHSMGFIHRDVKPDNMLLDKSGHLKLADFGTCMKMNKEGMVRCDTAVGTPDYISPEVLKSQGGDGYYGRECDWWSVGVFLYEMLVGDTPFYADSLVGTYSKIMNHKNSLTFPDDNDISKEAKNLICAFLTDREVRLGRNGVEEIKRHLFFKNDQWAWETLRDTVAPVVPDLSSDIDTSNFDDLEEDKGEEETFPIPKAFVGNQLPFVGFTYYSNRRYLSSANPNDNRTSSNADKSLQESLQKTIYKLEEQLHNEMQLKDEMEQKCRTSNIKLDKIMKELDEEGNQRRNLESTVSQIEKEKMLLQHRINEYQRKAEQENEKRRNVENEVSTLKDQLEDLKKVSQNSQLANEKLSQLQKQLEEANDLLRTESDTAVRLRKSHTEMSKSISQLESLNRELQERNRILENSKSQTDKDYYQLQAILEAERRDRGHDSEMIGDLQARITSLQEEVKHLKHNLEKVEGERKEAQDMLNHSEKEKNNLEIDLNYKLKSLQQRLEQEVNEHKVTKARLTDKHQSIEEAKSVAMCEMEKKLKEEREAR
As to the kind of experiment: Measurement of Rho kinase inhibitory activity (ELISA of MBS phosphorylation). The assay is classed as biochemical. The conditions noted are these: human ROCK1, MBS substrate, 100 μM ATP, 30° C. for 10 minutes. In outline:
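N-terminal His-tagged human ROCK1 (1-727, Sf9-expressed) phosphorylated plate-immobilized MBS in 20 mM HEPES pH 7.5, 100 μM ATP, 30° C for 10 minutes. Phospho-MBS detected by antibody ELISA (A490); IC50 is concentration giving 50% inhibition.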

Assay [2] relates to rabbit normal intraocular pressure. As to the kind of experiment: Intraocular pressure reducing action. The assay is classed as in vivo, Japanese white rabbit. The conditions noted are these: Oryctolagus cuniculus, topical, read-out: intraocular pressure reducing degree; for inhibition in vivo at 3000 µM: 3 mM aqueous solution, 50 μl to the left eye, max IOP reduction (2, 4, 6 hours) / value immediately before administration. In outline: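 Japanese white rabbits (~2 kg) under topical anaesthesia received 50 μl of a 3 mM aqueous test solution in the left eye, right eye untreated. IOP read by tonometer before and at 2, 4, 6 h; maximal left–right difference divided by pre-dose IOP ×100 gives % reduction.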

A further assay concerns TNF-α production. As to the kind of experiment: Inhibitory effect on TNF-α production in mice (LPS). The conditions noted are these: Mus musculus, 1.5 h; oral administration of 30 mg/kg, LPS 5 μg i.p. 60 minutes later, plasma after 90 minutes; read-out: TNF-α production suppressing action. The assay is classed as in vivo, BALB/c mice. How it is done: BALB/c mice (Japan CRJ, famale) were used as experimental animals. Each test compound was dissolved in distilled water at a concentration suitable for the examination. The weight of each mouse was measured, a test compound solution was orally administered in a volume corresponding to 10 ml/kg, and only distilled water was administered to the control group. Each group consisted of five to seven animals. LPS was dissolved in physiological saline, and intraperitoneally administered to each mouse in an amount of 5 μg. The test compound was administered first, and LPS (lipopolysaccharide, Sigma) was administered 60 minutes later. After 90 minutes, blood was collected from the abdominal large vein in the presence of heparin, and plasma was obtained by centrifugation. TNF-α content in the plasma was measured by using the ELISA method.

For assay [3], the system named is rat spinal canal stenosis (cauda equina compression-induced walking dysfunction) model. As to the kind of experiment: Rat spinal canal stenosis model, walking ability test. Format: in vivo. The following applies: treadmill; for walk distance compared with the solvent repetitive administration group: 14th day of repetitive administration; for Inventive compound repetitive administration group (average distance (m)): 14th day of repetitive administration started 4th day after operation, 7 or 8 animals. An excerpt:
A rat spinal canal stenosis (cauda equina compression-induced walking dysfunction) model can be prepared according to the method of Nakai, K et al. (Anesth. Analg., 94, pp. 1537-1541 (2002)) or the like. Namely, a rat is anesthetized with pentobarbital sodium, shaved on the back, and fixed in the abdominal position. After disinfection on the back with Isodine Surgical Scrub (Meiji Seika), a lumbar part is cut open along the median to expose the spine. Then, a silicone rubber of 1×4×1.5 mm (height×length×width) is inserted into the fifth lumbar vertebral canal from a small hole on the vertebral arch. Benzylpenicillin potassium (Crystalline Penicillin G Potassium Meiji, Meiji Seika) is dropped on the opened lesion and intramuscularly injected in the femoral region for the purpose of evasion of infectious diseases. The muscles and skin of the opened lesion are sutured with a ligature, and Isodine Surgical Scrub is applied to the sutured portion. Animals of sham group are also prepared according to the aforementioned method, provided that silicone rubber is not inserted.
In walking ability test, evaluation is performed by using a treadmill (Muromachi Kikai). A rat is placed on a traveling belt, adapted to the environment more than 3 minutes under a grid-electrified condition (0.04 to 4 mA), and then made to start walking from a velocity of 10 m/min, and then the velocity is increased by 5 m/min every 3 minutes. The walk is stopped, and electrical stimulation (0.04 to 4 mA) is applied to the rat which has moved to the grid for electrical stimulation provided before the traveling belt. Distance which the animal walked after the animal started the walk until the animal became unable to walk, i.e., the animal came not to walk even if a stimulation (sound, contact, electricity) was added to the animal to urge it to walk, was calculated from the walking time. Before the operation, the walking function test is carried out 3 times to perform training of walk. From the 4th day after the operation, repetitive administration of each compound of the present invention as a test compound was started, and the walking ability test was performed on the 14th day of the administration for the measurement.
Each group consisted of 7 or 8 animals, and the average distance before the administration was the average for the animals of both groups. […] It was confirmed that the compounds of the present invention were useful as medicaments for therapeutic treatment of a disease accompanied by walking dysfunction such as spinal canal stenosis.

As to `CN[C@H]1CCN(S(=O)(=O)c2cccc3c(N)ncc(Br)c23)C1` [Example 42-1, (S)-1-(1-Amino-4-bromo-5-isoquinolinesulfonyl)-3-(methylamino)pyrrolidine], in assay [1], the inhibition at 10 µM was no less than 50%. Further, at human ROCK1, the IC50 is less than 1000 nM. Further, in assay [2], the inhibition in vivo at 3000 µM was in the range of 5 to 10%.
`N[C@H]1CCN(S(=O)(=O)c2cccc3cncc(F)c23)C1` [Example 18-1, (S)-3-Amino-1-(4-fluoro-5-isoquinolinesulfonyl)pyrrolidine]: in assay [1], the inhibition at 10 µM is no less than 50%. Also, the inhibition in vivo at 30 mg/kg in the assay on TNF-α production is no less than 50%. The IC50 on human ROCK1 lay in the range of 1000 to 3000 nM. The inhibition in vivo at 3000 µM in assay [2] was no less than 20%.
Turning to `O=S(=O)(c1cccc2cncc(Br)c12)N1CC[C@H](NCc2ccc[nH]2)C1` [Example 1-18], the inhibition at 10 µM in assay [1] was no less than 50%. In the assay with TNF-α production, the inhibition in vivo at 30 mg/kg was no less than 50%. In addition, at human ROCK1, the half-inhibitory concentration (IC50) was less than 1000 nM. The inhibition in vivo at 3000 µM in assay [2] was 10 to 20%.
Take `O=S(=O)(c1cccc2cncc(Cl)c12)N1CC[C@H](NC2CCOCC2)C1` [Example 19-31]: the inhibition at 10 µM in assay [1] is no less than 50%. The inhibition in vivo at 30 mg/kg in the assay on TNF-α production is no less than 50%. The 50% inhibitory concentration (IC50) against human ROCK1 was in the range of 1000 to 3000 nM.
In turn, `N[C@H]1CCN(S(=O)(=O)c2cccc3c(O)ncc(F)c23)C1` [Example 29-1, (S)-3-Amino-1-(1-hydroxy-4-fluoro-5-isoquinolinesulfonyl)pyrrolidine] yielded an inhibition at 10 µM in assay [1] of no less than 50%. The inhibition in vivo at 30 mg/kg with TNF-α production is no less than 50%. For the same compound, the IC50 against human ROCK1 is less than 1000 nM. Besides, the inhibition in vivo at 3000 µM in assay [2] was 10 to 20%.
On to `CN[C@H]1CCN(S(=O)(=O)c2cccc3c(N)ncc(Cl)c23)C1` [Example 40-1, (S)-1-(1-Amino-4-chloro-5-isoquinolinesulfonyl)-3-(methylamino)pyrrolidine], for which the inhibition at 10 µM in assay [1] was no less than 50%. In the assay on TNF-α production, the inhibition in vivo at 30 mg/kg is no less than 50%. This compound returned a half-maximal inhibitory concentration (IC50) against human ROCK1 of 1000 to 3000 nM. The inhibition in vivo at 3000 µM in assay [2] lay in the range of 5 to 10%.
With `CN(C)CC(=O)N[C@H]1CCN(S(=O)(=O)c2cccc3cncc(Cl)c23)C1` [Example 57-1, (S)-3-[(2-Dimethylamino)acetyl]amino-1-(4-chloro-5-isoquinolinesulfonyl)pyrrolidine], in assay [3], the “walk distance compared with the solvent repetitive administration group” value is on record as “extended the walk distance” and the “Inventive compound repetitive administration group (average distance (m))” value was 183 m. Moreover, the inhibition in vivo at 30 mg/kg in the assay on TNF-α production is no less than 30%. The compound also displayed an IC50 at human ROCK1 of 1000 to 3000 nM. For the same compound, the inhibition in vivo at 3000 µM in assay [2] was no less than 20%.
For `Cc1cncc2cccc(S(=O)(=O)N3CC[C@H](N)C3)c12` [Example 8-1, (S)-3-Amino-1-(4-methyl-5-isoquinolinesulfonyl)pyrrolidine] the same measures were “extended the walk distance”, 169 m, no less than 50%, less than 1000 nM and no less than 20%.
On to `CN[C@@H]1CCN(S(=O)(=O)c2cccc3cncc(Cl)c23)C1` [Example 32-2, (R)-1-(4-Chloro-5-isoquinolinesulfonyl)-3-(methylamino)pyrrolidine], for which the inhibition at 10 µM in assay [1] is no less than 50%. The same compound had an IC50 against human ROCK1 of less than 1000 nM. In addition, the inhibition in vivo at 3000 µM in assay [2] lay in the range of 10 to 20%.
In assay [1], `Nc1ncc(Cl)c2c(S(=O)(=O)N3CC[C@H](N)C3)cccc12` [Example 39-1, (S)-3-Amino-1-(1-amino-4-chloro-5-isoquinolinesulfonyl)pyrrolidine] returned an inhibition at 10 µM of no less than 50%. Further, the inhibition in vivo at 30 mg/kg with TNF-α production is no less than 50%. For the same compound, on human ROCK1, the half-inhibitory concentration (IC50) is less than 1000 nM. In assay [2], the inhibition in vivo at 3000 µM lay in the range of 10 to 20%.
On to `CN[C@H]1CCN(S(=O)(=O)c2cccc3c(O)ncc(Br)c23)C1` [Example 35-1, (S)-1-(1-Hydroxy-4-bromo-5-isoquinolinesulfonyl)-3-(methylamino)pyrrolidine], for which the inhibition in vivo at 30 mg/kg in the assay with TNF-α production was no less than 50%. For the same compound, the IC50 on human ROCK1 was less than 1000 nM. Also, the inhibition in vivo at 3000 µM in assay [2] is 5 to 10%.
As for `O=S(=O)(c1cccc2cncc(Br)c12)N1CC[C@H](NC2CCOCC2)C1` [Example 1-30], the inhibition in vivo at 30 mg/kg with TNF-α production is no less than 30%. This compound showed a 50% inhibitory concentration (IC50) against human ROCK1 of 1000 to 3000 nM. Also, the inhibition in vivo at 3000 µM in assay [2] is no less than 20%.
With `O=S(=O)(c1cccc2cncc(Br)c12)N1CC[C@H](NCc2ccco2)C1` [Example 4-1, (S)-3-(2-Furylmethyl)amino-1-(4-bromo-5-isoquinolinesulfonyl)pyrrolidine], the inhibition in vivo at 30 mg/kg with TNF-α production was no less than 30%. The compound also displayed a concentration for half-maximal inhibition (IC50) at human ROCK1 of less than 1000 nM. Moreover, the inhibition in vivo at 3000 µM in assay [2] is no less than 20%.
Turning to `CN[C@H]1CCN(S(=O)(=O)c2cccc3cncc(Br)c23)C1` [Example 1-3, (S)-1-(4-Bromo-5-isoquinolinesulfonyl)-3-(methylamino)pyrrolidine], the inhibition in vivo at 30 mg/kg with TNF-α production is no less than 50%. The compound further gave an IC50 at human ROCK1 of less than 1000 nM. Further, the inhibition in vivo at 3000 µM in assay [2] was no less than 20%. Further, the inhibition in vivo at 1000 µM in assay [2] (test compound of 1 mM, same test as Test Example 3) was no less than 20%.
